One assay deals with hOX1R (Homo sapiens, UniProt O43613). In words: FLIPR Ca2+ flux assay, orexin-1 receptor. The assay is classed as cell-based. The following applies: CHO cells expressing orexin-1 receptor; agonist 70 pM Ala-6,12 orexin-A. A general note: A change in cytosolic calcium serves as a functional read-out for many receptors and channels.
A further assay deals with human orexin-2 receptor (Homo sapiens (Human), UniProt O43614). In words: FLIPR Ca2+ flux assay, orexin-2 receptor. The assay is classed as cell-based. To be noted: CHO cells expressing human orexin-2 receptor; agonist 70 pM Ala-6,12 orexin-A; read-out: hOX2R FLIPR IC50. On the procedure:
The utility of the compounds in accordance with the present invention as orexin receptor OX1R and/or OX2R antagonists may be readily determined without undue experimentation by methodology well known in the art, including the “FLIPR Ca^2+ Flux Assay” (Okumura et al., Biochem. Biophys. Res. Comm. 280:976-981, 2001). In a typical experiment the OX1 and OX2 receptor antagonistic activity of the compounds of the present invention was determined in accordance with the following experimental method. For intracellular calcium measurements, Chinese hamster ovary (CHO) cells expressing the rat orexin-1 receptor or the human orexin-2 receptor, are grown in Iscove's modified DMEM containing 2 mM L-glutamine, […], 1% hypoxanthine-thymidine supplement, 100 U/ml penicillin, 100 μg/ml streptomycin and 10% heat-inactivated fetal calf serum (FCS). The cells are seeded at 20,000 cells/well into Becton-Dickinson black 384-well clear bottom sterile plates coated with poly-D-lysine. All reagents were from GIBCO-Invitrogen Corp. The seeded plates are incubated overnight at 37° C. and 5% CO2. Ala-6,12 human orexin-A as the agonist is prepared as a 1 mM stock solution in 1% bovine serum albumin (BSA) and diluted in assay buffer (HBSS containing 20 mM HEPES, 0.1% BSA and 2.5 mM probenecid, pH7.4) for use in the assay at a final concentration of 70 pM. Test compounds are prepared as 10 mM stock solution in DMSO, then diluted in 384-well plates, first in DMSO, then assay buffer. On the day of the assay, cells are washed 3 times with 100 μl assay buffer and then incubated for 60 min (37° C., 5% CO2) in 60 μl assay buffer containing 1 μM Fluo-4AM ester, 0.02% pluronic acid, and 1% BSA. The dye loading solution is then aspirated and cells are washed 3 times with 100 μl assay buffer. 30 μl of that same buffer is left in each well. Within the Fluorescent Imaging Plate Reader (FLIPR, Molecular Devices), test compounds are added to the plate in a volume of 25 μl, incubated for 5 min and finally 25 μl of agonist is added. Fluorescence is measured for each well at 1 second intervals for 5 minutes and the height of each fluorescence peak is compared to the height of the fluorescence peak induced by 70 pM Ala-6,12 orexin-A with buffer in place of antagonist. For each antagonist, IC50 value (the concentration of compound needed to inhibit 50% of the agonist response) is determined. Alternatively, compound potency can be assessed by a radioligand binding assay (described in Bergman et. al. Bioorg. Med. Chem. Lett. 2008, 18, 1425-1430) in which the inhibition constant (Ki) is determined in membranes prepared from CHO cells expressing either the OX1 or OX2 receptor. The intrinsic orexin receptor antagonist activity of a compound which may be used in the present invention may be determined by these assays.

The term IC50 denotes the concentration at which inhibition is half-maximal.

Chain of human orexin-2 receptor (O43614 whole entry): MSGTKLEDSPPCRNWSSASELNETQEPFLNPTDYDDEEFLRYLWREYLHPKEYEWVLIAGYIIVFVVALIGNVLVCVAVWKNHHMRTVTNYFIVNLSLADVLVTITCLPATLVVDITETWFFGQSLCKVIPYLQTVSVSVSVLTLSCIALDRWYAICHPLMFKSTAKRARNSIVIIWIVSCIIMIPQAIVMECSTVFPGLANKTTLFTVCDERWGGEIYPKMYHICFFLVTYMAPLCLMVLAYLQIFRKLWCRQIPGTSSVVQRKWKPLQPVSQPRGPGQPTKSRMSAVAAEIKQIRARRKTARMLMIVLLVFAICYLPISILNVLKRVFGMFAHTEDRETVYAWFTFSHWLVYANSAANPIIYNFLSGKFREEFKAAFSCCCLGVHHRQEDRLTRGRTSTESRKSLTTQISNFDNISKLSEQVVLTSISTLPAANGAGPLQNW

On to `CC(C)COc1ccnc(O[C@@H]2CC[C@@H](C)N(C(=O)c3ccccc3-n3nccn3)C2)c1` [Example 42, 4-(2-methylpropoxy)-2-{[(3R,6R)-6-methyl-1-{[2-(2H-1,2,3-triazol-2-yl)phenyl]carbonyl}piperidin-3-yl]oxy}pyridine], for which the results for the IC50 at hOX1R and on human orexin-2 receptor were 5610 nM and 134 nM, respectively.
For `C[C@@H]1CC[C@@H](Oc2cc(OCC(F)F)ccn2)CN1C(=O)c1ccsc1-c1ncccn1` [Example 64, ((2R,5R)-5-((4-(2,2-Difluoroethoxy)pyridin-2-yl)oxy)-2-methylpiperidin-1-yl)(2-(pyrimidin-2-yl)thiophen-3-yl)methanone], in that order: 5210 nM and 36 nM.
The matching figures for `C[C@@H]1CC[C@@H](Oc2cc(OC(F)F)ccn2)CN1C(=O)c1cscc1-n1nccn1` [Example 55, 4-(difluoromethoxy)-2-{[(3R,6R)-6-methyl-1-{[4-(2H-1,2,3-triazol-2-yl)thiophen-3-yl]carbonyl}piperidin-3-yl]oxy}pyridine]: 1760 nM and 13 nM.
The matching figures for `C[C@@H]1CC[C@@H](Oc2cc(OCC(F)F)ccn2)CN1C(=O)c1ccccc1-n1ncnn1` [Example 29, 4-(2,2-difluoroethoxy)-2-{[(3R,6R)-6-methyl-1-{[2-(2H-tetrazol-2-yl)phenyl]carbonyl}piperidin-3-yl]oxy}pyridine]: 8070 nM and 29 nM.
Regarding `CC(C)Oc1ccnc(O[C@@H]2CC[C@@H](C)N(C(=O)c3cc(F)ccc3-n3nccn3)C2)c1` [Example 26, 2-{[(3R,6R)-1-{[5-fluoro-2-(2H-1,2,3-triazol-2-yl)phenyl]carbonyl}-6-methylpiperidin-3-yl]oxy}-4-(1-methylethoxy) pyridine], the IC50 was determined as 2480 nM on hOX1R and 37.2 nM at human orexin-2 receptor.
Consider `CC(C)Oc1ccnc(O[C@@H]2CC[C@@H](C)N(C(=O)c3ccc(F)cc3-n3nccn3)C2)c1` [Example 23, 2-{[(3R,6R)-1-{[4-fluoro-2-(2H-1,2,3-triazol-2-yl)phenyl]carbonyl}-6-methylpiperidin-3-yl]oxy}-4-(1-methylethoxy) pyridine], for which the IC50 at hOX1R was found to be 2140 nM; on human orexin-2 receptor, 41.2 nM.
In the case of `C[C@@H]1CC[C@@H](Oc2cc(OC(F)F)ccn2)CN1C(=O)c1ccccc1C1(C#N)CC1` [Example 56, 1-(2-{[(2R,5R)-5-{[4-(difluoromethoxy)pyridin-2-yl]oxy}-2-methylpiperidin-1-yl]carbonyl}phenyl) cyclopropane-carbonitrile], the figures for the IC50 on hOX1R and on human orexin-2 receptor were 1140 nM and 11 nM, respectively.
Regarding `COc1ccnc(O[C@@H]2CC[C@@H](C)N(C(=O)c3ccccc3-n3nccn3)C2)c1C=O` [Example 50, 4-Methoxy-2-{[(3R,6R)-6-methyl-1-{[2-(2H-1,2,3-triazol-2-yl)phenyl]carbonyl}piperidin-3-yl]oxy}pyridine-3-carbaldehyde], the IC50 was determined as 6750 nM at hOX1R and 37.5 nM at human orexin-2 receptor.
For `C[C@@H]1CC[C@@H](Oc2cc(OCC(F)F)ccn2)CN1C(=O)c1ccc(F)cc1-c1ncccn1` [Example 46, 2-(2-{[(2R,5R)-5-{[4-(2,2-difluoroethoxy)pyridin-2-yl]oxy}-2-methylpiperidin-1-yl]carbonyl}-5-fluorophenyl)pyrimidine], in that order: 3520 nM and 63 nM.
The matching figures for `C[C@@H]1CC[C@@H](Oc2cc(OCC(F)F)ccn2)CN1C(=O)c1cccc(F)c1-n1nccn1` [Example 34, 4-(2,2-difluoroethoxy)-2-{[(3R,6R)-1-{[3-fluoro-2-(2H-1,2,3-triazol-2-yl)phenyl]carbonyl}-6-methylpiperidin-3-yl]oxy}pyridine]: 2140 nM and 42 nM.
For `CCOc1ccnc(O[C@@H]2CC[C@@H](C)N(C(=O)c3ccsc3-c3ncccn3)C2)c1` [Example 65, ((2R,5R)-5-(4-Ethoxypyridin-2-yloxy)-2-methylpiperidin-1-yl)(2-(pyrimidin-2-yl)thiophen-3-yl)methanone], in that order: 899 nM and 26 nM.
Turning to `COc1ccnc(O[C@@H]2CC[C@@H](C)N(C(=O)c3ccc(OC)cc3-n3nccn3)C2)c1` [Example 20, 4-methoxy-2-{[(3R,6R)-1-{[4-methoxy-2-(2H-1,2,3-triazol-2-yl)phenyl]carbonyl}-6-methylpiperidin-3-yl]oxy}pyridine], the IC50 is 10000 nM on hOX1R and 114 nM at human orexin-2 receptor.
The matching figures for `C[C@@H]1CC[C@@H](Oc2cc(OC(F)F)ccn2)CN1C(=O)c1ccccc1-n1nccn1` [Example 52, (2-(2H-1,2,3-Triazol-2-yl)phenyl)((2R,5R)-5-((4-(difluoromethoxy)pyridin-2-yl)oxy)-2-methylpiperidin-1-yl)methanone]: 194 nM and 4 nM.
For `COc1ccnc(O[C@@H]2CC[C@@H](C)N(C(=O)c3ccccc3-n3nccn3)C2)c1F` [Example 49, 3-Fluoro-4-methoxy-2-{[(3R,6R)-6-methyl-1-{[2-(2H-1,2,3-triazol-2-yl)phenyl]carbonyl}piperidin-3-yl]oxy}pyridine], in that order: 10000 nM and 71 nM.
The matching figures for `COc1ccc(C(=O)N2C[C@H](Oc3cc(OC(C)C)ccn3)CC[C@H]2C)c(-n2nccn2)c1` [Example 24, 2-{[(3R,6R)-1-{[4-methoxy-2-(2H-1,2,3-triazol-2-yl)phenyl]carbonyl}-6-methylpiperidin-3-yl]oxy}-4-(1-methylethoxy) pyridine]: 10000 nM and 136 nM.
With `COc1ccnc(O[C@@H]2CC[C@@H](C)N(C(=O)c3c(F)cccc3-n3nccn3)C2)c1` [Example 17, 2-{[(3R,6R)-1-{[2-fluoro-6-(2H-1,2,3-triazol-2-yl)phenyl]carbonyl}-6-methylpiperidin-3-yl]oxy}-4-methoxypyridine], the concentration for half-maximal inhibition (IC50) was 1600 nM at hOX1R and 27 nM on human orexin-2 receptor.
As to `C[C@@H]1CC[C@@H](Oc2cc(OCC(F)F)ccn2)CN1C(=O)c1ncccc1-c1ncccn1` [Example 47, 2-(2-{[(2R,5R)-5-{[4-(2,2-difluoroethoxy)pyridin-2-yl]oxy}-2-methylpiperidin-1-yl]carbonyl}pyridin-3-yl)pyrimidine], the half-inhibitory concentration (IC50) at hOX1R worked out at 9270 nM; at human orexin-2 receptor it was 84 nM.
The matching figures for `COc1ccnc(O[C@@H]2CC[C@@H](C)N(C(=O)c3ccccc3-n3nccn3)C2)c1C(C)=O` [Example 51, 1-(4-methoxy-2-{[(3R,6R)-6-methyl-1-{[2-(2H-1,2,3-triazol-2-yl)phenyl]carbonyl}piperidin-3-yl]oxy}pyridin-3-yl)ethanone]: 976 nM and 12.3 nM.
The matching figures for `COc1ccnc(O[C@@H]2CC[C@@H](C)N(C(=O)c3cccc(F)c3-n3nccn3)C2)c1` [Example 10, 2-{[(3R,6R)-1-{[3-fluoro-2-(2H-1,2,3-triazol-2-yl)phenyl]carbonyl}-6-methylpiperidin-3-yl]oxy}-4-methoxypyridine]: 576 nM and 14.7 nM.
Consider `C[C@@H]1CC[C@@H](Oc2cc(OCC(F)(F)F)ccn2)CN1C(=O)c1ccccc1-n1nccn1` [Example 28, (2-(2H-1,2,3-triazol-2-yl)phenyl)((2R,5R)-2-methyl-5-((4-(2,2,2-trifluoroethoxy)pyridin-2-yl)oxy)piperidin-1-yl)methanone], for which the values for the IC50 at hOX1R and at human orexin-2 receptor were 1340 nM and 8 nM, respectively.
Regarding `C[C@@H]1CC[C@@H](Oc2cc(OCc3ccccc3)ccn2)CN1C(=O)c1ccccc1-n1nccn1` [Example 4, 4-(benzyloxy)-2-{[(3R,6R)-6-methyl-1-{[2-(2H-1,2,3-triazol-2-yl)phenyl]carbonyl}piperidin-3-yl]oxy}pyridine], the results for the IC50 at hOX1R and on human orexin-2 receptor were 1850 nM and 59.4 nM, respectively.
Turning to `Cc1noc(-c2ccccc2C(=O)N2C[C@H](Oc3cc(OCC(F)F)ccn3)CC[C@H]2C)n1` [Example 37, 4-(2,2-difluoroethoxy)-2-{[(3R,6R)-6-methyl-1-{[2-(3-methyl-1,2,4-oxadiazol-5-yl)phenyl]carbonyl}piperidin-3-yl]oxy}pyridine], the IC50 on hOX1R came out at 2720 nM; on human orexin-2 receptor, 52 nM.

(Values after US9745284B2, “2-pyridyloxy-4-ether orexin receptor antagonists” (MERCK SHARP & DOHME CORP., priority 2013, dated 2017).)
